# Tests used:
# XPO1 (Jurkat XPO1^WT) = target: T1, XPO1 (Jurkat XPO1^WT) (Homo sapiens, UniProt O14980); assay: RanBP1 immunofluorescence (XPO1-mediated nuclear export) in wild-type Jurkat cells; type: cell-based; conditions: positive control at 1 μM, 3 h
# T1 construct: RanBP1 immunofluorescence staining was performed on both wild type and mutant XPO1^C528S Jurkat cells; endogenous in cells; host or cells: wild-type Jurkat leukemia cells
# Procedure: (§1) The effect of the mutation on the activity of the inhibitors was assessed by the visualization of the subcellular localization of the XPO1 cargo RanBP1.
# (§2) Stably transfected HeLa NLSSV40-AcGFP-NESPKI were cultured as described in Vercruysse et al.
# (§3) Cells were harvested at 400× g, washed in PBS and then transferred into an 8-well µ-Slide (Ibidi) pretreated with 0.1% (w/v) poly-L-lysine (Sigma). Cells were allowed to adhere to the slides and then subsequently fixed (4% PFA in PBS), washed and permeabilized (0.2% Triton X-100 in PBS). Further immunofluorescence staining was then performed according to standard procedures. Employed antibodies were rabbit anti-RanBP1 (ab97659, Abcam, Cambridge, UK) at a 1:500 dilution and secondary Alexa Fluor 488 goat anti-rabbit antibody (A11008, Invitrogen, ThermoFisher Scientific). Cell nuclei were counterstained with DAPI, and the samples were imaged by confocal microscopy on a Leica TCS SP5 confocal microscope (Leica Microsystems, Weitzlar, Germany), employing a HCX PL APO 63× (NA 1.2) water immersion objective. Subsequently, fluorescence was read on an ArrayScan XTI High Content Reader (Thermo Fisher Scientific, Waltham, MA, USA). Nuclear and cytoplasmic compartments were segmented, and their average pixel intensities in the green channel were quantitated similarly as for the XPO1 phenotypic reporter assay.
# Z-138 cells = assay: Cell proliferation assay (IncuCyte confluence), Z-138; type: cell-based; conditions: Homo sapiens; Z-138 non-Hodgkin lymphoma; 72 h; mean of two independent experiments ± SEM; read-out: IC50 antiproliferative activity Z-138
# Procedure: (§4) Cancer cell lines HCT-116, NCI-H460, HL-60, K-562 and Z-138 were acquired from the American Type Culture Collection (ATCC, Manassas, VA, USA). The DND-41 cell line was purchased from the Deutsche Sammlung von Mikroorganismen und Zellkulturen (DSMZ Leibniz-Institut, Brunswick, Germany), and the HAP-1 cell line was ordered from Horizon Discovery (Horizon Discovery Group, Water Beach, UK). All cell lines were cultured as recommended by the suppliers. Culture media were purchased from Gibco Life Technologies and supplemented with 10% fetal bovine serum (HyClone, GE Healthcare Life Sciences, Chicago, Illinois, USA).
# (§5) Adherent cell lines HCT-116, NCI-H460 and Hap-1 cells were seeded at a density between 500 and 1500 cells per well in 384-well tissue culture plates (Greiner). After overnight incubation, cells were treated with different concentrations of the test compounds. Suspension cell lines HL-60, K-562, Z-138 and DND-41 were seeded at densities ranging from 2500 to 5500 cells per well in 384-well culture plates containing the test compounds at the same concentration points.
# HL-60 cells = assay: Cell proliferation assay (IncuCyte confluence), HL-60; type: cell-based; conditions: Homo sapiens; HL-60 acute myeloid leukemia; 72 h; mean of two independent experiments ± SEM; read-out: IC50 antiproliferative activity HL-60
# Procedure: as §4, §5
# [1] = target: T2, XPO1^C528S (Jurkat XPO1^C528S) (Homo sapiens, UniProt O14980, C528S); assay: RanBP1 immunofluorescence (XPO1-mediated nuclear export) in mutant XPO1^C528S Jurkat cells; type: cell-based; conditions: positive control at 1 μM, 3 h
# T2 construct: CRISPR/Cas9 genome editing of the Jurkat cell line was performed as in Neggers et al. [43] to generate a XPO1^C528S mutant cell line; endogenous in cells; host or cells: Jurkat cells genome-edited by CRISPR/Cas9 at the XPO1 locus (XPO1^C528S)
# T2 sequence (O14980 whole entry C528S): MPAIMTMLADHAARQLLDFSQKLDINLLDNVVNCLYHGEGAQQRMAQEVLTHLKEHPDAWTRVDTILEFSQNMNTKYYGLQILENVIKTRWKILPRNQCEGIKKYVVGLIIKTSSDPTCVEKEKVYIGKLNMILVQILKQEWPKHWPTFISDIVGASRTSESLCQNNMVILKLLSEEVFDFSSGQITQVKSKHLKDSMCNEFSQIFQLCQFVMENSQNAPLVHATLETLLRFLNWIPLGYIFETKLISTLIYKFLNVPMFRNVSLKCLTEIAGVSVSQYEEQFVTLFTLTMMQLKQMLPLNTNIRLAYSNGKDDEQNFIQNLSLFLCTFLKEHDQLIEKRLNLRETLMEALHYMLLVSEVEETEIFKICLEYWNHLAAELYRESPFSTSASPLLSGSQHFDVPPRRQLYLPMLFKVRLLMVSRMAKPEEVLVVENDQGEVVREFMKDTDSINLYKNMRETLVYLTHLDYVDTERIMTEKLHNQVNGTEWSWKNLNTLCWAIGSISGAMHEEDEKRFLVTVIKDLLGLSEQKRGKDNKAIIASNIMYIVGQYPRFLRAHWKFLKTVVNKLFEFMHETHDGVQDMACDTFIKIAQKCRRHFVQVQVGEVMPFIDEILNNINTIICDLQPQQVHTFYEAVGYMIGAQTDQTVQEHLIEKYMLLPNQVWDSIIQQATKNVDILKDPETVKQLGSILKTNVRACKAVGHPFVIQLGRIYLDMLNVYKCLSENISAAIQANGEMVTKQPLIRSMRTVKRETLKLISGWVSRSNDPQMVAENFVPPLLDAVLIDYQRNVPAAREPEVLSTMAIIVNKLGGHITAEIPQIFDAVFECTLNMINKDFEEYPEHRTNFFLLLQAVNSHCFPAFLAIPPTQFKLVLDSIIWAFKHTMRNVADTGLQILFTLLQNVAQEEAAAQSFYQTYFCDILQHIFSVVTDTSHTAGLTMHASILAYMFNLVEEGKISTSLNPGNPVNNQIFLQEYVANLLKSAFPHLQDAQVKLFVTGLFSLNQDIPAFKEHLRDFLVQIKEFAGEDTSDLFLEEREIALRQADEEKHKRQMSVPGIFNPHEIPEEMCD
# Procedure: as §1, §2, §3
# Hap-1 cells = assay: Cell proliferation assay (IncuCyte confluence), Hap-1; type: cell-based; conditions: Homo sapiens, HAP1; Hap-1 chronic myeloid leukemia; 72 h; mean of two independent experiments ± SEM; read-out: IC50 antiproliferative activity Hap-1
# Procedure: as §4, §5
# HCT-116 cells = assay: Cell proliferation assay (IncuCyte confluence), HCT-116; type: cell-based; conditions: Homo sapiens; HCT-116 colorectal carcinoma; 72 h; mean of two independent experiments ± SEM; read-out: IC50 antiproliferative activity HCT-116
# Procedure: as §4, §5
# NCI-H460 cells = assay: Cell proliferation assay (IncuCyte confluence), NCI-H460; type: cell-based; conditions: Homo sapiens; NCI-H460 lung carcinoma; 72 h; mean of two independent experiments ± SEM; read-out: IC50 antiproliferative activity NCI-H460
# Procedure: as §4, §5
# K-562 cells = assay: Cell proliferation assay (IncuCyte confluence), K-562; type: cell-based; conditions: Homo sapiens, K562; K-562 chronic myeloid leukemia; 72 h; mean of two independent experiments ± SEM; read-out: IC50 antiproliferative activity K-562
# Procedure: as §4, §5
# DND-41 cells = assay: Cell proliferation assay (IncuCyte confluence), DND-41; type: cell-based; conditions: DND41; DND-41 acute lymphoblastic leukemia; 72 h; mean of two independent experiments ± SEM; read-out: IC50 antiproliferative activity DND-41
# Procedure: as §4, §5
# [2] = Stability in phosphate-buffered solution (PBS); type: physicochemical
# Description: It has been described by performing kinetic measurements in α-X-2′3,4,4’-tetramethylchalcones that the nature of the substituent at position α of the chalcone affects their reactivity as electrophiles versus thiol groups. In such series, the α-COOEt substituent led to a similar reactivity as that of the α-H chalcone; the α-CH3 chalcone was poorly electrophilic, while the α-CN chalcone was the most electrophilic. Thus, in the naphthyl series (Figure 3), the synthesis of the chalcones where R1 = H, COOCH3, CH3 or CN was accomplished. The reaction of 1-(naphthalen-2-yl)ethan-1-one (11) with pyrimidine-5-carbaldehyde in the presence of Ba(OH)2 afforded α-H chalcone 9 in a 55% yield (Scheme 1). […] Reaction of the ester 12 with NH3/dioxane at 110 °C [29] led to the amide 14 that was further transformed into the chalcone 15. On the other hand, reaction of naphthalene 16 with propionyl chloride under Friedel–Crafts acylation conditions, as described, provided the 2-acyl derivative 17, together with a small proportion of its 1-isomer. This mixture of isomers reacted with pyrimidine-5-carbaldehyde to yield the α-CH3 chalcone 18 (30%). Finally, the synthesis of the α-CN derivative was addressed by the reaction of 2-methylnaphthoate (19) with acetonitrile to provide 3-oxopropanenitrile 20 [32], which was further transformed into the α-CN chalcone 21.
"Subcellular localization of RanBP1, wild-type Jurkat (XPO1 (Jurkat XPO1^WT))",IC50 (HL-60 cells) [nM],"Subcellular localization of RanBP1, mutant XPO1^C528S Jurkat [1]",IC50 (HCT-116 cells) [nM],IC50 (NCI-H460 cells) [nM],IC50 (K-562 cells) [nM],Stability in PBS [2],Structure (SMILES),IC50 (Z-138 cells) [nM],IC50 (Hap-1 cells) [nM],IC50 (DND-41 cells) [nM]
RanBP1 was accumulated in the nucleus,110 ± 100,RanBP1 remained in the cytoplasm,100 ± 100,120 ± 80,90,–,"O=C(/C=C\n1cnc(-c2cc(C(F)(F)F)cc(C(F)(F)F)c2)n1)NNc1cnccn1 [KPT-330, selinexor, reference compound]",400 ± 400,70 ± 30,50
–,–,–,–,–,–,very unstable and readily decomposed,"N#C/C(=C\c1cncnc1)C(=O)c1ccc2ccccc2c1 [Compound 21, (E)-2-Cyano-1-(naphthalene-2-yl)-3-(pyrimidin-5-yl)prop-2-en-1-one]",–,–,–

# Source: publication PMC8621101, “Inhibition of XPO-1 Mediated Nuclear Export through the Michael-Acceptor Character of Chalcones” (Pharmaceuticals, 2021)
